Experimental data reported in ChEMBL document CHEMBL1140967, “Regiospecific microwave-assisted synthesis and cytotoxic activity against human breast cancer cells of (RS)-6-substituted-7- or 9-(2,3-dihydro-5H-1,4-benzodioxepin-3-yl)-7H- or -9H-purines” (Eur J Med Chem, 2008).
pIC50: −log10 of the molar value.

What was measured:
[1] = tested on: MCF7; assay: Antiproliferative activity against human MCF7 cells after 6 days by SRB assay; settings: MCF7, 144 h
[2] = tested on: MCF7; assay: Cell cycle arrest in human MCF7 cells assessed as accumulation at G0/G1 phase at cytotoxic IC50 after 48 hrs by FACS assay; type: functional
[3] = tested on: MCF7; assay: Cell cycle arrest in human MCF7 cells assessed as accumulation at S phase at cytotoxic IC50 after 48 hrs by FACS assay; type: functional
[4] = tested on: MCF7; assay: Cell cycle arrest in human MCF7 cells assessed as accumulation at G2/M phase at cytotoxic IC50 after 48 hrs by FACS assay; type: functional
[5] = tested on: MCF7; assay: Induction of apoptosis in human MCF7 cells at cytotoxic IC50 after 48 hrs by Annexin-V based assay; type: functional

| Compound | pIC50 [1] | also measured |
| --- | --- | --- |
| CSc1ncnc2ncn(C3COc4ccccc4CO3)c12 (racemic) | 4.50 |  |
| c1ccc2c(c1)COC(n1cnc3ncnc(OCC4CCCCC4)c31)CO2 (racemic) | 4.87 |  |
| C=CCOc1ncnc2c1ncn2C1COc2ccccc2CO1 (racemic) | 5.30 | Activity [2]: 55.63%; Activity [3]: 37%; Activity [4]: 7.37%; Activity [5]: 44.47% |
| Clc1ccc(Sc2ncnc3[nH]cnc23)c(Cl)c1 | 4.67 |  |
| CSc1ncnc2c1ncn2C1COc2ccccc2CO1 (racemic) | 4.62 |  |
| Fc1ccc(Sc2ncnc3[nH]cnc23)cc1 | 4.50 |  |
| C=CCOc1ncnc2ncn(C3COc4ccccc4CO3)c12 (racemic) | 4.68 |  |
| O=c1ccn(C2COc3ccccc3CO2)c(=O)[nH]1 (configuration not stated) | 5.30 |  |
| c1ccc2c(c1)COC(n1cnc3c(OCC4CCCCC4)ncnc31)CO2 (racemic) | 4.94 |  |
| Nc1nc(OCC2CCCCC2)c2nc[nH]c2n1 | 4.62 |  |
| CC(=O)O[C@H]1C(=O)[C@@]2(C)[C@H]([C@H](OC(=O)c3ccccc3)[C@]3(O)C[C@H](OC(=O)[C@H](O)[C@@H](NC(=O)c4ccccc4)c4ccccc4)C(C)=C1C3(C)C)[C@]1(OC(C)=O)CO[C@@H]1C[C@@H]2O [PACLITAXEL] |  | Activity [5]: 43% |
| C=CCOc1ncnc2[nH]cnc12 | 4.35 |  |
| O=c1[nH]cc(F)c(=O)[nH]1 [FLUOROURACIL] | 5.36 |  |
| c1ccc(Sc2ncnc3ncn(C4COc5ccccc5CO4)c23)cc1 (racemic) | 4.81 |  |
| c1ccc(Sc2ncnc3c2ncn3C2COc3ccccc3CO2)cc1 (racemic) | 5.15 | Activity [2]: 59.1%; Activity [3]: 26.82%; Activity [4]: 11.08%; Activity [5]: 73.37% |
| c1ccc(Sc2ncnc3[nH]cnc23)cc1 | 4.51 |  |
| c1ccc(Oc2ncnc3[nH]cnc23)cc1 | 4.55 |  |
| c1nc(OCC2CCCCC2)c2nc[nH]c2n1 | 4.49 |  |
| CSc1ncnc2[nH]cnc12 | 4.63 |  |
| Fc1ccc(Sc2ncnc3c2ncn3C2COc3ccccc3CO2)cc1 (racemic) | 4.95 |  |
| Clc1ccc(Sc2ncnc3ncn(C4COc5ccccc5CO4)c23)c(Cl)c1 (racemic) | 5.08 | Activity [2]: 58.1%; Activity [3]: 22.73%; Activity [4]: 19.16%; Activity [5]: 65.28% |
| Clc1ccc(Sc2ncnc3c2ncn3C2COc3ccccc3CO2)c(Cl)c1 (racemic) | 4.92 |  |
| Fc1ccc(Sc2ncnc3ncn(C4COc5ccccc5CO4)c23)cc1 (racemic) | 4.85 |  |
| c1ccc(Oc2ncnc3ncn(C4COc5ccccc5CO4)c23)cc1 (racemic) | 4.68 |  |
| c1ccc(Oc2ncnc3c2ncn3C2COc3ccccc3CO2)cc1 (racemic) | 4.61 |  |
